Experimental data taken from patent US11613546B2, “Substituted pyridotriazine compounds and uses thereof” (Gilead Sciences, Inc., priority 2021, dated 2023).
Like-named read-outs stand apart in the source and are kept apart here.

Columns and labels:
Format in all cases: cell-based
[1] = system: HIV-1 (IIIB); assay: Antiviral assay in MT-4 cells; conditions: HIV-1 IIIB infected MT-4 cells, 5 days, Cell Titer Glo, read-out: MT4 EC50
In short: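 MT-4 cells infected with a 1:250 dilution of HIV-1 IIIB stock were incubated with serially diluted (1:3) compound for 5 days at 37 °C. Viability read by Cell Titer Glo luminescence; EC50 is the concentration giving 50% decrease in signal, from sigmoidal dose-response fits.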

[2] = system: MT-4 cells; assay: Cytotoxicity assay in MT-4 cells
In short: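 Uninfected MT-4 cells were incubated with 1:3 serially diluted compound in RPMI/10% FBS for 5 days at 37° C. Viability was read by CellTiter-Glo luminescence, with 10 μM puromycin as the baseline cytotoxicity control. Values are the concentration giving a 50% decrease in luminescence, from sigmoidal dose-response fits.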

[3] = system: pLai RLuc reporter virus; assay: HIV MT-4 serum shift antiviral reporter assay
In short: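 MT-4 cells pre-infected with pLai RLuc virus for 2 h at 37 °C, then incubated 72 h at 37 °C with compound in medium (RPMI, 10% FBS) with or without 50% human serum; Renilla luminescence read. EC50 from sigmoidal fit; serum shift = EC50(HS/CCM)/EC50(CCM).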

[4] = Human immunodeficiency virus 1, IIIB, MT4, 120 h
[5] = uninfected MT-4 cells, 5 days, Cell Titer Glo, read-out: CC50
[6] = Human immunodeficiency virus 1, 72 h, read-out: RLUC 50% HS (nM), HS/CCM: 50% human serum, 72 h, Renilla Glo
[7] = Human immunodeficiency virus 1, 72 h, read-out: RLUC CCM (nM), cell culture media (RPMI, 10% FBS), 72 h, Renilla Glo
[8] = read-out: RLUC 50% HS, HS/CCM: 50% human serum, 72 h, Renilla Glo
[9] = read-out: RLUC CCM, cell culture media (RPMI, 10% FBS), 72 h, Renilla Glo
[10] = HS/CCM: 50% human serum, 72 h, Renilla Glo, read-out: RLUC 50% HS
[11] = cell culture media (RPMI, 10% FBS), 72 h, Renilla Glo, read-out: RLUC CCM

## COC[C@@H]1C=C[C@H](C)N2CN1n1cc(C(=O)NCc3c(F)cc(F)cc3F)c(=O)c(O)c1C2=O [Example C79, (1S,2S,5S)-8-hydroxy-2-(methoxymethyl)-5-methyl-7,9-dioxo-N-(2,4,6-trifluorobenzyl)-2,5,7,9-tetrahydro-1,6-methanopyrido[1,2-b][1,2,5]triazonine-10-carboxamide]
[1]; [4]
  EC50: 0.0046 µM
[2]; [5]
  CC50: 50 µM
[3]; [6]
  EC50: 638 nM
[3]; [7]
  EC50: 1.81 nM

## C[C@H]1C=C[C@H](C)N2CN1C(=O)c1c(O)c(=O)c(C(=O)NCc3c(F)cc(F)cc3F)cn12 [Example C26, (1R,2S,5S)-8-hydroxy-2,5-dimethyl-7,9-dioxo-N-(2,4,6-trifluorobenzyl)-2,5,7,9-tetrahydro-1,6-methanopyrido[1,2-b][1,2,5]triazonine-10-carboxamide]
[1]
  EC50: 0.0024 µM
[2]; [5]
  CC50: 28.1 µM
[3]; [8]
  EC50: 349 nM
[3]; [9]
  EC50: 0.63 nM

## C[C@H]1C=CC(C)(C)N2CN1n1cc(C(=O)NCc3ccc(F)cc3F)c(=O)c(O)c1C2=O [Example C92, (1S,2S)—N-(2,4-difluorobenzyl)-8-hydroxy-2,5,5-trimethyl-7,9-dioxo-2,5,7,9-tetrahydro-1,6-methanopyrido[1,2-b][1,2,5]triazonine-10-carboxamide]
[1]
  EC50: 0.0015 µM
[2]; [5]
  CC50: 17.5 µM
[3]; [10]
  EC50: 246 nM
[3]; [11]
  EC50: 0.67 nM

## C[C@@H]1C=C[C@@H](C)N2CN1C(=O)c1c(O)c(=O)c(C(=O)NCc3ccc(F)cc3F)cn12 [Example C69, (1S,2R,5R)—N-(2,4-difluorobenzyl)-8-hydroxy-2,5-dimethyl-7,9-dioxo-2,5,7,9-tetrahydro-1,6-methanopyrido[1,2-b][1,2,5]triazonine-10-carboxamide]
[1]
  EC50: 0.0015 µM
[2]; [5]
  CC50: 38.9 µM
[3]; [8]
  EC50: 146 nM
[3]; [9]
  EC50: 0.55 nM

## C[C@@H]1CCC[C@H](C)N2CN1n1cc(C(=O)NCc3c(F)cc(F)cc3F)c(=O)c(O)c1C2=O [Example C14, (1R,2S,6R)-9-hydroxy-2,6-dimethyl-8,10-dioxo-N-(2,4,6-trifluorobenzyl)-3,4,5,6,8,10-hexahydro-2H-1,7-methanopyrido[1,2-b][1,2,5]triazecine-11-carboxamide]
[1]
  EC50: 0.002 µM
[2]; [5]
  CC50: 8.06 µM
[3]; [8]
  EC50: 31.1 nM
[3]; [9]
  EC50: 0.71 nM

## C[C@@H]1c2nc[nH]c2[C@H](C)N2CN1n1cc(C(=O)NCc3ccc(F)cc3F)c(=O)c(O)c1C2=O [Example C60, (4R,5S,13S)—N-(2,4-difluorobenzyl)-10-hydroxy-4,13-dimethyl-9,11-dioxo-4,9,11,13-tetrahydro-1H-5,12-methanoimidazo[4,5-g]pyrido[1,2-b][1,2,5]triazonine-8-carboxamide]
[1]; [4]
  EC50: 0.0957 µM
[2]; [5]
  CC50: 50 µM
[3]; [6]
  EC50: 104 nM
[3]; [7]
  EC50: 42.6 nM

## O=C(NCc1c(F)cc(F)cc1F)c1cn2c(c(O)c1=O)C(=O)N1Cc3cc(F)ccc3CN2C1 [Example C3, (6S)-10-fluoro-1-hydroxy-2,14-dioxo-N-(2,4,6-trifluorobenzyl)-2,7,12,14-tetrahydro-6,13-methanobenzo[g]pyrido[1,2-b][1,2,5]triazonine-3-carboxamide]
[1]
  EC50: 0.0017 µM
[2]; [5]
  CC50: 13.4 µM
[3]; [10]
  EC50: 2.72 nM
[3]; [11]
  EC50: 0.39 nM

## C[C@H]1C/C=C\CN2CN1n1cc(C(=O)NCc3ccc(F)cc3F)c(=O)c(O)c1C2=O [Example C41, (1S,2S,Z)—N-(2,4-difluorobenzyl)-9-hydroxy-2-methyl-8,10-dioxo-3,6,8,10-tetrahydro-2H-1,7-methanopyrido[1,2-b][1,2,5]triazecine-11-carboxamide]
[1]
  EC50: 0.0012 µM
[2]; [5]
  CC50: 14.2 µM
[3]; [8]
  EC50: 68.6 nM
[3]; [9]
  EC50: 0.71 nM

## C[C@H]1C/C=C\CN2CN1n1cc(C(=O)NCc3ccc(F)cc3F)c(=O)c(O)c1C2=O [Example C43, (1R,2S,Z)—N-(2,4-difluorobenzyl)-9-hydroxy-2-methyl-8,10-dioxo-3,6,8,10-tetrahydro-2H-1,7-methanopyrido[1,2-b][1,2,5]triazecine-11-carboxamide]
[1]
  EC50: 0.0053 µM
[2]; [5]
  CC50: 6.11 µM
[3]; [8]
  EC50: 544 nM
[3]; [9]
  EC50: 1.68 nM

## C[C@H]1CCC(C)(C)N2CN1n1cc(C(=O)NCc3ccc(F)cc3F)c(=O)c(O)c1C2=O [Example C94, (1R,2S)—N-(2,4-difluorobenzyl)-8-hydroxy-2,5,5-trimethyl-7,9-dioxo-2,3,4,5,7,9-hexahydro-1,6-methanopyrido[1,2-b][1,2,5]triazonine-10-carboxamide]
[1]
  EC50: 0.0251 µM
[2]; [5]
  CC50: 50 µM
[3]; [10]
  EC50: 361 nM
[3]; [11]
  EC50: 6.21 nM

## C[C@@H]1CCC(C)(C)N2CN1n1cc(C(=O)NCc3ccc(F)cc3F)c(=O)c(O)c1C2=O [Example C93, (1S,2R)—N-(2,4-difluorobenzyl)-8-hydroxy-2,5,5-trimethyl-7,9-dioxo-2,3,4,5,7,9-hexahydro-1,6-methanopyrido[1,2-b][1,2,5]triazonine-10-carboxamide]
[1]
  EC50: 0.0169 µM
[2]; [5]
  CC50: 50 µM
[3]; [10]
  EC50: 96.8 nM
[3]; [11]
  EC50: 1.15 nM

## C[C@H]1C=C[C@H](CF)N2CN1C(=O)c1c(O)c(=O)c(C(=O)NCc3c(F)cc(F)cc3F)cn12 [Example C80, (1R,2R,5S)-2-(fluoromethyl)-8-hydroxy-5-methyl-7,9-dioxo-N-(2,4,6-trifluorobenzyl)-2,5,7,9-tetrahydro-1,6-methanopyrido[1,2-b][1,2,5]triazonine-10-carboxamide]
[1]
  EC50: 0.0081 µM
[2]
  CC50: 25.4 µM
[3]; [10]
  EC50: 810 nM
[3]; [11]
  EC50: 1.24 nM

## C[C@H]1CCC[C@H](C)N2CN1C(=O)c1c(O)c(=O)c(C(=O)NCc3c(F)cc(F)cc3F)cn12 [Example C23, (1S,2S,6S)-9-hydroxy-2,6-dimethyl-8,10-dioxo-N-(2,4,6-trifluorobenzyl)-3,4,5,6,8,10-hexahydro-2H-1,7-methanopyrido[1,2-b][1,2,5]triazecine-11-carboxamide]
[1]; [4]
  EC50: 0.0025 µM
[2]; [5]
  CC50: 50 µM
[3]; [6]
  EC50: 14.5 nM
[3]; [7]
  EC50: 0.29 nM

## C[C@@H]1[C@H]2C[C@H]2[C@H](C)N2CN1n1cc(C(=O)NCc3c(F)cc(F)cc3F)c(=O)c(O)c1C2=O [Example C88, (1aS,2R,3S,11S,11aR)-8-hydroxy-2,11-dimethyl-7,9-dioxo-N-(2,4,6-trifluorobenzyl)-1a,2,7,9,11,11a-hexahydro-1H-3,10-methanocyclopropa[g]pyrido[1,2-b][1,2,5]triazonine-6-carboxamide]
[1]
  EC50: 0.0011 µM
[2]; [5]
  CC50: 34.3 µM

## C[C@@H]1CCCCN2CN1n1cc(C(=O)NCc3ccc(F)cc3F)c(=O)c(O)c1C2=O [Example C15, (1R,2R)—N-(2,4-difluorobenzyl)-9-hydroxy-2-methyl-8,10-dioxo-3,4,5,6,8,10-hexahydro-2H-1,7-methanopyrido[1,2-b][1,2,5]triazecine-11-carboxamide]
[1]
  EC50: 0.0019 µM
[2]; [5]
  CC50: 9.97 µM

## C[C@@H]1N2CN([C@@H](C)CC1(F)F)n1cc(C(=O)NCc3ccc(F)cc3F)c(=O)c(O)c1C2=O [Example C59, (1S,2S,5S)—N-(2,4-difluorobenzyl)-4,4-difluoro-8-hydroxy-2,5-dimethyl-7,9-dioxo-2,3,4,5,7,9-hexahydro-1,6-methanopyrido[1,2-b][1,2,5]triazonine-10-carboxamide]
[1]; [4]
  EC50: 0.0028 µM
[2]; [5]
  CC50: 50 µM

## C[C@@H]1/C=C\C[C@@H](C)N2CN1C(=O)c1c(O)c(=O)c(C(=O)NCc3c(F)cc(F)cc3F)cn12 [Example C18, (1S,2R,6R,Z)-9-hydroxy-2,6-dimethyl-8,10-dioxo-N-(2,4,6-trifluorobenzyl)-3,6,8,10-tetrahydro-2H-1,7-methanopyrido[1,2-b][1,2,5]triazecine-11-carboxamide]
[1]
  EC50: 0.0043 µM
[2]
  CC50: 13.4 µM

## (1S,2R,5S)—N-(2,4-difluorobenzyl)-8-hydroxy-2,3,5-trimethyl-7,9-dioxo-2,5,7,9-tetrahydro-1,6-methanopyrido[1,2-b][1,2,5]triazonine-10-carboxamide [Example C62]
[1]
  EC50: 0.0014 µM
[2]
  CC50: 50 µM

## C[C@H]1C=CC(C)(C)N2CN1C(=O)c1c(O)c(=O)c(C(=O)NCc3c(F)cc(F)cc3F)cn12 [Example C48, (1S,5S)-8-hydroxy-2,2,5-trimethyl-7,9-dioxo-N-(2,4,6-trifluorobenzyl)-2,5,7,9-tetrahydro-1,6-methanopyrido[1,2-b][1,2,5]triazonine-10-carboxamide]
[1]
  EC50: 0.0015 µM
[2]; [5]
  CC50: 50 µM

## C[C@H]1/C=C\C[C@H](C)N2CN1C(=O)c1c(O)c(=O)c(C(=O)NCc3c(F)cc(F)cc3F)cn12 [Example C20, (1S,2S,6S,Z)-9-hydroxy-2,6-dimethyl-8,10-dioxo-N-(2,4,6-trifluorobenzyl)-3,6,8,10-tetrahydro-2H-1,7-methanopyrido[1,2-b][1,2,5]triazecine-11-carboxamide]
[1]
  EC50: 0.0035 µM
[2]; [5]
  CC50: 16.6 µM
